Ki data for ten compounds are collected here from BindingDB's records for doi:10.1111/j.1747-0285.2008.00752.x (Universitat Aut&Ogravenoma De Barcelona, 2009).

Assay in all cases: Inhibition Assay
The target of one assay is T1, Carboxypeptidase A1 (Bos taurus, UniProt P00730).
T1 sequence (P00730 whole entry): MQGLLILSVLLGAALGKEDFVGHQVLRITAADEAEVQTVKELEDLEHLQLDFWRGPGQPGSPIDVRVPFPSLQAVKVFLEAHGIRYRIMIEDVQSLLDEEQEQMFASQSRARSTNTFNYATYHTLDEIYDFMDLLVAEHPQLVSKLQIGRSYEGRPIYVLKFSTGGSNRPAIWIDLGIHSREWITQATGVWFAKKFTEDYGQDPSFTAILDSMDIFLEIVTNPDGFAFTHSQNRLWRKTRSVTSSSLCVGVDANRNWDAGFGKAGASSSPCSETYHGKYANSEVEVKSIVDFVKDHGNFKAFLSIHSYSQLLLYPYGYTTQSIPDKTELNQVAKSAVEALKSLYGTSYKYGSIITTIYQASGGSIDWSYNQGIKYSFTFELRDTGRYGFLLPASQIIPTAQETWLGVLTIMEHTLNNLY
The text has this: (§1) The aromatic compounds screening were characterized by molecular docking as well as by in vitro inhibition assay against carboxypeptidase(CPs) of different specifications and natural origin.

Another assay addresses T2, Carboxypeptidase B (Helicoverpa zea, UniProt Q3T905).
T2 sequence (Q3T905 whole entry): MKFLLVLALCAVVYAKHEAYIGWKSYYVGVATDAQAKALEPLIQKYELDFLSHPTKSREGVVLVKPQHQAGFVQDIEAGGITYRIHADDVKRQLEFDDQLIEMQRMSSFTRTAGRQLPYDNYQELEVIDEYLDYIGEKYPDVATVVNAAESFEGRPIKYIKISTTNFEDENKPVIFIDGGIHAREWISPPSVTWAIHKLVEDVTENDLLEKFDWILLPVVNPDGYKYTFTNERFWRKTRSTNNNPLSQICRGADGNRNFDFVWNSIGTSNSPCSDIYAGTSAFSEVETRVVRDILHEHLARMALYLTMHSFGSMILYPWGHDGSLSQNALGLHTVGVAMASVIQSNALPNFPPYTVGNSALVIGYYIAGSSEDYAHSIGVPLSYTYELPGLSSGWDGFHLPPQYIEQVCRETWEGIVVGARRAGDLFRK
Source text: as §1

The target in the next assay is T3, Carboxypeptidase B2 (Homo sapiens, UniProt Q96IY4).
T3 sequence (Q96IY4 whole entry): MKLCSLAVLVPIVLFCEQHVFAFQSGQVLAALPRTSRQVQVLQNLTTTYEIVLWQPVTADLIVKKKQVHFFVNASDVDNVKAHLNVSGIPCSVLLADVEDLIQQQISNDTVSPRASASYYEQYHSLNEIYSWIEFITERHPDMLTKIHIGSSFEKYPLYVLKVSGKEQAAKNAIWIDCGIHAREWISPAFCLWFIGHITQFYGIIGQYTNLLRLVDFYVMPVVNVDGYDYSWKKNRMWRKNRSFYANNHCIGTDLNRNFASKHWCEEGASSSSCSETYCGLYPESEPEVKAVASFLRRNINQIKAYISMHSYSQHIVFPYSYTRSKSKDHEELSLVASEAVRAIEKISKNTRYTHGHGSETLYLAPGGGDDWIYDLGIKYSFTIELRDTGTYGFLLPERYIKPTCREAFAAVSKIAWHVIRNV
Source text: as §1

The structures appear in SMILES notation.

Turning to `COc1ccc2[nH]c(=O)c(CN(CCO)C(=S)Nc3ccc(C)cc3)cc2c1` [1-(2-hydroxyethyl)-1-((6-methoxy-2-oxo-1,2-dihydroquinolin-3-yl)methyl)3-yl)methyl)-3-p-tolythiourea, 7], the Ki on Carboxypeptidase A1 was 420 µM; on Carboxypeptidase B, 20.5 µM; at Carboxypeptidase B2, 22.5 µM.

For `O=C(O)CCSc1nnc(COc2cccc3ccccc23)n1-c1ccccc1` [3-(5-((naphthalen-1-yloxy)methyl)-4-pheny-4H-1,2,4-triazol-3-ythio)propanoic acid, 8], the Ki on Carboxypeptidase A1 was 10.4 µM; on Carboxypeptidase B, 35 µM; at Carboxypeptidase B2 it was 11.8 µM.

Consider `Cc1ccc2[nH]c(=O)c(CN(Cc3cccs3)C(=S)NC(C)c3ccccc3)cc2c1` (stereo not given) [1-((6-methyl-2-oxo-1,2-dihydroquinolin-3-yl)methyl)-3-(1-phenylethyl)-1-(thiophen-2-ylmethyl)thiourea, 10], for which the results for the Ki on Carboxypeptidase A1, on Carboxypeptidase B and on Carboxypeptidase B2 were 3.8 µM, 0.58 µM and 1.6 µM, respectively.

Regarding `Nc1nccc2ccc(CC(N)C(=O)O)cc12` (stereo not given) [2-amino-3-(1-aminoisoquinolin-7-yl)propanoic acid, 2], the Ki at Carboxypeptidase A1 was found to be 290 µM; on Carboxypeptidase B it was 129 µM; on Carboxypeptidase B2, 145 µM.

In the case of `Nc1nccc2cc(CC(N)C(=O)O)ccc12` (stereo not given) [2-Amino-3-(1-aminoisoquinolin-6-yl)propanoic acid, 1], the Ki amounted to 280 µM at Carboxypeptidase A1, 100 µM on Carboxypeptidase B and 220 µM on Carboxypeptidase B2.

With `O=c1[nH]c(CN(Cc2ccccc2)S(=O)(=O)c2ccc(F)cc2)nc2ccccc12` [N-benzyl-4-fluoro-N-((4-hydroxyquinazolin-2-yl)methylbenzensulfonamide, 9], the Ki at Carboxypeptidase A1 stood at 37 µM; at Carboxypeptidase B, 82 µM; at Carboxypeptidase B2, 14.3 µM.

On to `COC(=O)c1ccccc1NC(=S)N(Cc1ccco1)Cc1cc2cccc(C)c2[nH]c1=O` [methyl 2-(3-furan-2-ylmethyl)-3-((8-methyl-2-oxo-1,2,-dihydroquinolin-3-yl)methyl)thioureido)benzoate, 11], for which the figures for the Ki on Carboxypeptidase A1, at Carboxypeptidase B and on Carboxypeptidase B2 were 15 µM, 1.2 µM and 13.3 µM, respectively.

As to `O=C(Cn1nnc(-c2cccs2)n1)N1CCc2ccccc2C1` [1-(3,4-dihydroisoquinolin-2(1H)-yl)-2-(5thiophen-2-yl)-2H-tetrazol-2-yl)ethanone, 3], the Ki on Carboxypeptidase A1 was 520 µM; at Carboxypeptidase B, 62 µM; at Carboxypeptidase B2 it was 32 µM.

On to `Cc1ccc(C(=O)CSc2nnc(COc3ccc4ccccc4c3)o2)cc1` [2-(5-(naphthalen-2-yloxy)methyl)-1,3,4-oxadiazol-2-ylthio)-1-p-tolylethanone, 5], for which the Ki on Carboxypeptidase A1 was 58 µM; at Carboxypeptidase B it was 1.6 µM; at Carboxypeptidase B2, 1.9 µM.

With `Cc1ccc(C(=O)CSc2nnc(COc3cccc4cccnc34)o2)cc1` [1-(4-methylphenyl)-2-[[5-(8-quinolinyloxymethyl)-1,3,4-oxadiazol-2-yl]thio]ethanone], the Ki at Carboxypeptidase A1 worked out at 32 µM; at Carboxypeptidase B, 14 µM; at Carboxypeptidase B2, 50 µM.

By Ki is commonly meant the equilibrium dissociation constant of an inhibitor or competing ligand from its target. Higher therefore signals weaker binding.
